The record followed here is patent US5240714A, “Non-digoxin-like Na^+, K^+ -ATPase inhibitory factor” (priority 1989, dated 1993).

The subject of this assay is anti-digoxin antibody. Description: digoxin radioimmunoassay (cross-reactivity with anti-digoxin antibody). As to conditions: at the doses tested. Type of assay: binding. Here is the method:
Radioimmunoassay. Generally, a digoxin antibody covalently bound to the inner surface of polypropylene tubes was used, obtained from Immunochem (USA). Digoxin standards and samples were diluted 1:2 in 1.5M Tris-ClH, pH 7.5. ^125 I-digoxin (2000 μCi/μg) was used.
As stated previously, this cross reaction is not a necessary criteria for HHIF. However, this method is used to follow and evaluate digoxin-like substances in the exemplary purification procedures. An RIA commercial kit was used, purchased from Immunochem. Digoxin standards and sample preparations were diluted 1:2 in 1.5M Tris-ClH, pH 7.5. Digoxin antibodies were covalently bound to the inner surface of polypropylene tubes. After a 30 min. incubation at 20° C., tubes with sample plus I^125 -digoxin unbound radioactivity are discarded and the tubes counted by […]. Values of DLA are calculated by extrapolating from the standard curve constructed on semilogarithmic paper with plots of B/B. vs. concentration.
A radioimmunoassay method based on charcoal separation using a commercial antibody elicited in rabbit against digoxin is also used as described by Smith, T. W., et al. "Determination Of Therapeutic And Toxic Serum Digoxin Concentrations By Radioimmunoassay." The New England J Med. 1969;1212-1216.

Turning to `C[C@@H]1O[C@@H](O[C@H]2C[C@@H](O)[C@]3(CO)[C@H]4[C@H](O)C[C@]5(C)[C@@H](C6=CC(=O)OC6)CC[C@]5(O)[C@@H]4CC[C@]3(O)C2)[C@H](O)[C@H](O)[C@H]1O` [ouabain], the “cross-reactivity with anti-digoxin antibody (digoxin immunoreactivity)” value was “weakly cross-reacted”.
